Laboratory results: patent publication US6545033B1, “Fused 1-(2,6-dichloro-4-trifluoromethylphenyl)-pyrazoles, the synthesis thereof and the use thereof as pesticides” (3-Dimensional Pharmaceuticals, Inc., priority 1999, dated 2003)

Assays:
[1] = test system: houseflies (Musca domestica); experiment: In vivo housefly contact assay; conditions: contact in coated glass test tube, about 24 hours; mM = concentration of the DMSO solution, about 1 μL applied
Procedure: This example describes an in vivo assay to screen compounds for their ability to kill houseflies via contact. Newly emerged houseflies (Musca domestica, available from Rincon-Vitova Insectaries, Inc., Ventura, Calif.) were sedated with carbon dioxide gas, collected in 50 mL polypropylene conical tubes containing filter paper saturated with 10% (w/w) sucrose in water, and allowed to feed at room temperature for about 2-4 hours. Test compounds were dissolved as in dimethylsulfoxide (DMSO) at concentrations ranging from about 0.05 mM to about 100 mM. About 1 μL of dissolved test compound and about 100 μL of isopropanol were dispensed into the bottom of a 9 mL screw-top glass test tube. Positive control test tubes were prepared in the same manner except that no test compounds were dissolved in the DMSO. Each test tube was rolled to coat the sides with the chemical solution, and allowed to air dry 24-48 hours. About 20 houseflies were sedated by refrigeration at 0-4° C. and transferred to each test tube. Each test tube was sealed with organdy cloth secured by an open top screw cap and laid horizontally in the dark. After about 24 hours, the healthy, moribund, and dead houseflies in each test tube were counted. The percentage of dead houseflies in each test tube was then calculated using the formula M=100(D−(FC/100))/(F−(FC/100)), in which M is the percentage of dead houseflies due to the addition of the test compound, D is the number of dead houseflies in the test tube, F is the total number of houseflies in the test tube, and C is the percentage of dead houseflies in the control test tubes.

[2] = test system: cat fleas (Ctenocephalides felis), CO Fleas; experiment: In vivo cat flea contact assay, CO fleas; conditions: contact with treated filter disk in vial, about 24-30 hours, mM = concentration of the DMSO solution, about 1 μL applied; for LC50: Ctenocephalides felis, topical, read-out: LD50 (mM), CO Fleas
Procedure: (§1) This example describes an in vivo assay to screen compounds for their ability to kill cat fleas via contact.
(§2) Test compounds were dissolved in dimethylsulfoxide (DMSO) at concentrations ranging from about 0.05 mM to about 100 mM. About 1 μL of dissolved test compound was dispensed onto a 6 mm (diameter) GF/C filter disk (filter material available from Whatman Inc., Clifton, N.J.) in the bottom of a 4 mL screw-top glass vial and allowed to air dry 24-48 hours. Positive control vials were prepared in the same manner except that no test compounds were dissolved in the DMSO. About 20 newly emerged cat fleas (Ctenocephalides felis) were sedated by refrigeration at 0-4° C. and transferred to each vial. Each vial was sealed with a thin, perforated Teflon™ septum secured by an open top screw cap and held vertically in the dark. After about 24-30 hours, the healthy, moribund, and dead cat fleas in each vial were counted. The percentage of dead cat fleas in each vial was then calculated using the formula M=100(D−(FC/100))/(F−(FC/100)), in which M is the percentage of dead cat fleas due to the addition of the test compound, D is the number of dead cat fleas in the test vial, F is the total number of cat fleas in the test vial, and C is the percentage of dead cat fleas in the control vials.

[3] = test system: cat fleas (Ctenocephalides felis), NC Fleas; experiment: In vivo cat flea contact assay, NC fleas; conditions: contact with treated filter disk in vial, about 24-30 hours; mM = concentration of the DMSO solution, about 1 μL applied
Procedure: as §1, §2

Housefly GABA receptors = target: T1, Housefly GABA receptors (Musca domestica, UniProt Q75NA5); experiment: In vitro assay of binding to housefly GABA receptors (3H-EBOB displacement, housefly neuronal membranes); conditions: for Compounds with the most activity (housefly 3H-EBOB binding): housefly neuronal membranes
T1 sequence (Q75NA5 30-576): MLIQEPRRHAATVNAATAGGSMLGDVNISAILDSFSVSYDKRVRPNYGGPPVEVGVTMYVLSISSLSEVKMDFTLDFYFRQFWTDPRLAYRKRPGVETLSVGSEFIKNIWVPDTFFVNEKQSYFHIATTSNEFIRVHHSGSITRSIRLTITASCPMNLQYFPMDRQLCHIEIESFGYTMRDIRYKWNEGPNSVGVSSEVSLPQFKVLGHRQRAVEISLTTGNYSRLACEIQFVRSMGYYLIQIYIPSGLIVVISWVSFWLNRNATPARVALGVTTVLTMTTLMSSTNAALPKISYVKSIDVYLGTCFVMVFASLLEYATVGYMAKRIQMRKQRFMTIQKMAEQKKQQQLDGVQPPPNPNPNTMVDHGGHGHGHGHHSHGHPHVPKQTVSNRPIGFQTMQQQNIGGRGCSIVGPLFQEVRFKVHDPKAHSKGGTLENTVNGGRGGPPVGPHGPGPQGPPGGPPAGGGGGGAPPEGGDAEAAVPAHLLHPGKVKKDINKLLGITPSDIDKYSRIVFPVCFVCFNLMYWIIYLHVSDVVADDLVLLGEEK
Procedure: Newly emerged houseflies (Musca domestica, available from Rincon-Vitova Insectaries, Inc., Ventura, Calif.) were sedated with carbon dioxide gas, collected in 50 mL polypropylene conical tubes, and immediately frozen by submersion in liquid nitrogen. Unless specified, all of the following work was performed at 0-4° C. After removal from liquid nitrogen, the tubes of frozen houseflies were shaken vigorously by hand to decapitate the houseflies. […] Contaminating wings were removed by holding a vacuum nozzle approximately 4 cm above the heads, and contaminating legs were separated from the heads by passage through a #15 mesh screen. All remaining debris were removed from the pool of heads using forceps. The purified heads were collected in 50 mL polypropylene conical tubes and stored in liquid nitrogen until processed further.
About 13 g of purified housefly heads were suspended in about 65 mL of 10% sucrose buffer (10% sucrose (w/w) in 10 mM Tris, pH 7.5). The heads were homogenized for about 1 minute, using a Tissumizer™ homogenizer equipped with a SDT-100EN probe (available from Tekmar-Dohrmann, Cincinnati, Ohio) running at 70% of its maximum speed. The extract was further homogenized by about 5 passes through a 40 mL Dounce tissue grinder. The extract was then centrifuged at about 500×g for about 5 minutes to pellet large debris. The supernatant was collected; the pellet was washed with an additional 65 mL of 10% sucrose buffer and centrifuged at 500×g for about 5 minutes. The second supernatant was collected and combined with the first supernatant, and the pool was filtered through a 100μ CellMicroSieve™ mesh to remove residual debris (available from BioDesign of New York, Carmel, N.Y.).
Neuronal membranes containing active GABA receptors were collected via sucrose density centrifugation by the following method. About 8 mL of 35% sucrose buffer (35% sucrose (w/w) in 10 mM Tris, pH 7.5), were dispensed into each of six 38 mL ultracentrifuge tubes. These layers were overlaid with about 8 mL of 20% sucrose buffer (20% sucrose (w/w) in 10 mM Tris, pH 7.5), and finally overlaid with about 20 mL of filtered extract supernatant. The tubes were centrifuged at about 120,000×g for about 100 min at 4° C. After centrifugation, the 10% sucrose layer and most of the 20% sucrose layer were removed by aspiration. The membranes at the interface of the 20% sucrose and 35% sucrose layers were collected, pooled, diluted with 10% sucrose buffer, and centrifuged at about 120,000×g for about 40 min at 4° C. After centrifugation, the supernatant was discarded, and the pellets resuspended in about 6.5 mL of assay buffer (10 mM phosphate, 300 mM NaCl, pH 7.5) using a 10 mL Potter-Elvehjem tissue grinder with a Teflon® pestle. Protein concentration was determined by the Bio-Rad Protein Assay (available from Bio-Rad Laboratories, Hercules, Calif.) using bovine serum albumin as a standard. The membranes were aliquoted and stored in liquid nitrogen for up to 2 months before use.
Housefly neuronal membranes were prepared as described above from housefly heads. Test compounds were dissolved in dimethylsulfoxide (DMSO) at concentrations ranging from about 2 nM to about 100 mM. About 1 μL of a dissolved test compound was dispensed into a well of a 96-well polystyrene plate. About 100 μL of ice cold assay buffer (10 mM phosphate, 300 mM NaCl, pH 7.5) containing 5.2 nM 4′-Ethynyl-4-n-[2,3-^3H2]propylbicycloorthobenzoate (^3H-EBOB, 38 Ci/mmol, available from NEN Life Science Products, Boston, Mass.) was added to the well, followed by about 100 μL of ice cold assay buffer containing about 0.5-1.0 mg/mL housefly neuronal membranes. Control wells were prepared the same way except that the housefly neuronal membranes were omitted from the “negative” wells, and the test compounds were omitted from the “positive” wells. […]

[4] = target: Mouse Brain GABA Receptors; experiment: In vitro assay of binding to mouse brain GABA receptors (3H-EBOB displacement, mouse brain membranes); conditions: displacement of 5.2 nM 3H-EBOB, about 45 min at about 24° C.
Procedure: Mouse brains were obtained from carbon dioxide-asphyxiated Swiss-Webster mice, washed with phosphate-buffered saline, and used either fresh or after storage at −80° C. for up to 10 months. Unless specified, all preparation steps were performed at 0-4° C. For each preparation, 20 brains were suspended in about 40 mL of 0.32 M sucrose and homogenized for about 2 minutes, using a Tissumizer™ homogenizer equipped with a SDT-100EN probe (available from Tekmar-Dohrmann, Cincinnati, Ohio) running at 50% of its maximum speed. The extract was centrifuged for about 5 min at about 1000×g to pellet intact brain tissue. The supernatant was retained and the pellet washed with an additional 40 mL of 0.32 M sucrose and centrifuged at 1000×g for about 5 minutes. The 1000×g supernatants were combined and centrifuged at about 10,000×g for about 20 min to pellet membranes. The 10,000×g supernatant was discarded and the pellet was resuspended in about 20 mL of water containing 1 mM EDTA. The sample was dialyzed two times for about 3 hours each against about 3 L of water. The sample was then centrifuged at about 25,000×g for about 30 min to pellet the membranes. After centrifugation, the supernatant was discarded and the wet pellet recovered. The protein concentration of the pellet was determined by the Bio-Rad Protein Assay (available from Bio-Rad Laboratories, Hercules, Calif.) using bovine serum albumin as a standard. The membranes were aliquoted and stored at −80° C. for up to 6 months before use.
Mouse brain membranes were prepared as described above from dissected mouse brains. Test compounds were dissolved in dimethylsulfoxide (DMSO) at concentrations ranging from about 2 nM to about 100 mM. About 1 μL of a dissolved test compound was dispensed into a well of a 96-well polystyrene plate. About 100 μL of ice cold assay buffer (10 mM phosphate, 300 mM NaCl, pH 7.5) containing 5.2 nM 4′-Ethynyl-4-n-[2,3-^3H2]propylbicycloorthobenzoate (^3H-EBOB, 38 Ci/mmol, available from NEN Life Science Products, Boston, Mass.) was added to the well, followed by about 100 μL of ice cold assay buffer containing about 0.25-0.5 mg/mL mouse brain membranes. Control wells were prepared the same way except that the mouse brain membranes were omitted from the “negative” wells, and the test compounds were omitted from the “positive” wells. The samples were incubated for about 45 min at about 24° C. and then filtered on a 0.1% (w/v) polyethylenimine-soaked glass fiber Filtermat A (available from EG&G Wallac Inc., Gaithersburg, Md.) followed by four 100 mL rinses of cold assay buffer using a Harvester 96® cell harvester (available from Tomtec, Orange, Conn.). The filtermat was air dried and radioactivity bound to the filtermat was detected with either a 1450 MicroBeta® Trilux scintillation counter (available from EG&G Wallac Inc.) or a Topcount NXT™ scintillation counter (available from Packard Instrument Co., Meriden, Conn.) using standard methods.
Specific binding was considered to be the difference between total ^3H bound to the mouse brain membranes in the absence of any inhibitors and nonspecific ^3H bound to the mouse brain membranes upon the addition of 5 μM unlabeled EBOB. The average radioactivity contained in the “negative” wells was subtracted from each of the assay wells. […] Compounds that displaced ^3H-EBOB specifically bound to the mouse brain membranes were tested at 24-48 different final concentrations, varying from about 1 nM to about 125 μM, in order to determine the concentration at which 50% of the maximum inhibition due to the addition of that compound was observed (IC50). […]

IC50 [4] [nM] | SMILES | LD50 (mM), Flies [1] [mM] | LD50 (mM), CO Fleas [2] [mM] | LD50 (mM), NC Fleas [3] [mM] | Compounds with the most activity (housefly 3H-EBOB binding) (Housefly GABA receptors) | LC50 [2] [mM] | IC50 (Housefly GABA receptors; displacement of 5.2 nM 3H-EBOB, housefly head neuronal membranes, about 45 min at about 24° C., read-out: IC50 (nM), Fly Head) [nM]
– | O=S1(=O)Cc2cn(-c3c(Cl)cc(C(F)(F)F)cc3Cl)nc2C1 [3″, 2-[2,6-Dichloro-4-(trifuoromethyl)phenyl]-4,6-dihydrothieno-[3,4-c]pyrazole-5,5-dione] | 5 | >100 | >100 | – | – | –
– | FC(F)(F)c1cc(Cl)c(-n2cc3c(n2)CCCC3)c(Cl)c1 [Compound 13, 2-[2,6-Dichloro-4-(trifluoromethyl)phenyl]-4,5,6,7-tetrahydro-2H-indazole] | >100 | – | 20 | most activity | 37.5 | –
– | FC(F)(F)c1cc(Cl)c(-n2cc3c(n2)C2CCC3C2)c(Cl)c1 (stereo not shown) [Compound 35, 3,4-Diaza-4-[2,6-dichloro-4-(trifluoromethyl)phenyl]tricyclo-[5.2.1.0^2.6]deca-2,5-diene] | 48 | – | 12 | most activity | 17 | –
1000 | FC(F)(F)c1cc(Cl)c(-n2cc3c(n2)CCC3(F)F)c(Cl)c1 [Compound 61, 2-[2,6-dichloro-4-(trifluoromethyl)phenyl]-4,4-difluoro-2,4,5,6-tetrahydrocyclopenta[c]pyrazole] | – | – | – | – | 5 | –
– | CC1(O)c2cn(-c3c(Cl)cc(C(F)(F)F)cc3Cl)nc2C(F)C1F (stereo not shown) [Compound 88, 2-[2,6-Dichloro-4-(trifluoromethyl)phenyl]-5,6-difluoro-4-methyl-2,4,5,6-tetrahydrocyclopenta[c]pyrazol-4-ol] | – | – | – | – | 5 | 350
180 | FC1c2nn(-c3c(Cl)cc(C(F)(F)F)cc3Cl)cc2C(F)(F)C1F (stereo not shown) [Compound 89, 2-[2,6-Dichloro-4-(trifluoromethyl)phenyl]-4,4,5,6-tetrafluoro-2,4,5,6-tetrahydrocyclopenta[c]pyrazole] | – | – | – | – | < 0.5 | –
60 | FC(F)(F)c1cc(Cl)c(-n2cc3c(n2)CC(F)(F)C3(F)F)c(Cl)c1 [Compound 92, 2-[2,6-Dichloro-4-(trifluoromethyl)phenyl]-4,4,5,5-tetrafluoro-2,4,5,6-tetrahydrocyclopenta[c]pyrazole] | – | – | – | – | < 0.5 | –
